Literature values as cited in PubChem BioAssay AID1259409 (Chemical Carcinogenesis Research Information System (CCRIS), 2018).

Test system: rodent chemically induced tumor inhibition, incidence and multiplicity
Experiment: CCRIS tumor inhibitor studies

SMILES: NCCS
- tumour outcome (control, treated, inhibition, significance) (Carcinogen: N-METHYL-N'-NITRO-N-NITROSOGUANIDINE, 70-25-7, Dose [Inhibitor]: 0, 25 MG/KG IN 0.9% SALINE PLUS 2 MG/KG PROPANOLOL IN OLIVE OIL 1/2 D BEGINNING 1 WK POST LAST CARCINOGEN DOSE AND CONTI, Route [Inhibitor]: SUBCUTANEOUS, Species: RAT, Strain/Sex: WISTAR/MALE, Target Tissue: Type of Lesion: STOMACH: ADENOCARCINOMA, Dose [Carcinogen]: 100 UG/ML IN DRINKING WATER FOR 25 WK, Promoter: NONE USED): 16/20 (80%), 2/22 (9%), 89%, p<0.001
- tumour outcome (control, treated, inhibition, significance) (Carcinogen: N-METHYL-N'-NITRO-N-NITROSOGUANIDINE, 70-25-7, Dose [Inhibitor]: 0, 25 MG/KG IN 0.9% SALINE PLUS 50 MG/KG CIMETIDINE IN OLIVE OIL 1/2 D BEGINNING 1 WK POST LAST CARCINOGEN DOSE AND CONT, Route [Inhibitor]: SUBCUTANEOUS, Species: RAT, Strain/Sex: WISTAR/MALE, Target Tissue: Type of Lesion: STOMACH: ADENOCARCINOMA, Dose [Carcinogen]: 100 UG/ML IN DRINKING WATER FOR 25 WK, Promoter: NONE USED): 16/20 (80%), 12/21 (57%), 29%, not significant
- tumour outcome (control, treated, inhibition, significance) (Carcinogen: N-METHYL-N'-NITRO-N-NITROSOGUANIDINE, 70-25-7, Dose [Inhibitor]: 0, 25 MG/KG IN 1 ML/KG OLIVE OIL 1/2 D FOR STUDY DURATION BEGINNING POST CARCINOGEN TREATMENT (STUDY DURATION: 52 WK), Route [Inhibitor]: SUBCUTANEOUS, Species: RAT, Strain/Sex: WISTAR/MALE, Target Tissue: Type of Lesion: GLANDULAR STOMACH: ADENOCARCINOMA, Dose [Carcinogen]: 50 UG/ML DRINKING WATER FOR 25 WK): 13/18 (72%), 6/20 (30%), 58%, p<0.05
- tumour outcome (control, treated, inhibition, significance) (Carcinogen: N-METHYL-N'-NITRO-N-NITROSOGUANIDINE, 70-25-7, Dose [Inhibitor]: 0, 50 MG/KG IN 0.9% SALINE 1/2 D BEGINNING POST CARCINOGEN DOSE AND CONTINUING FOR DURATION OF STUDY (STUDY DURATION: 52, Route [Inhibitor]: SUBCUTANEOUS, Species: RAT, Strain/Sex: WISTAR/MALE, Target Tissue: Type of Lesion: STOMACH: ADENOCARCINOMA, Dose [Carcinogen]: 50 UG/ML DRINKING WATER FOR 25 WK, Promoter: NONE USED): 12/19 (63%), 5/20 (25%), 58%, p<0.05
- tumour outcome (control, treated, inhibition, significance) (Carcinogen: N-METHYL-N'-NITRO-N-NITROSOGUANIDINE, 70-25-7, Dose [Inhibitor]: 0, 280 MG/KG 1/2 D FOR STUDY DURATION (STUDY DURATION: 52 WK), Route [Inhibitor]: SUBCUTANEOUS, Species: RAT, Strain/Sex: WISTAR/MALE, Target Tissue: Type of Lesion: STOMACH: ADENOCARCINOMA, Dose [Carcinogen]: 50 UG/ML DRINKING WATER FOR 25 WK, Promoter: NONE USED): 75%, 18%, 76%, p<0.01
- tumour outcome (control, treated, inhibition, significance) (Carcinogen: N-METHYL-N'-NITRO-N-NITROSOGUANIDINE, 70-25-7, Dose [Inhibitor]: 0.4% IN DIET FOR 26 WK GIVEN POST CARCINOGEN (STUDY DURATION: 52 WK), Route [Inhibitor]: ORAL, Species: RAT, Strain/Sex: WISTAR/MALE, Target Tissue: Type of Lesion: STOMACH: ADENOCARCINOMA, Dose [Carcinogen]: 50 UG/ML DRINKING WATER FOR 25 WK, Promoter: NONE USED): 16/20 (80%), 9/20 (45%), 44%, p<0.05
- tumour outcome (control, treated, inhibition, significance) (Carcinogen: TRANS-5-AMINO-3-[2-(5-NITRO-2-FURYL)VINYL]-1,2,4-OXADIAZOLE;SQL8506, 28754-68-9, Carcinogen: TRANS-5-AMINO-3-[2-(5-NITRO-2-FURYL)VINYL]-1,2,4-OXADIAZOLE;SQL8506, 28754-68-9, Dose [Inhibitor]: 210 MG/KG 16 HR BEFORE THE 1ST CARCINOGEN DOSE FOLLOWED BY IP INJECTIONS (210 MG/KG) IMMEDIATELY BEFORE EACH DOSE OF CAR, Route [Inhibitor]: INTRAMUSCULAR/INTRAPERITONEAL, Species: MOUSE, Strain/Sex: CD-1/FEMALE, Target Tissue: Type of Lesion: HEMATOPOIETIC: MYELOID LEUKEMIA, Dose [Carcinogen]: 1 G/KG 2/D FOR 5 D EVERY 4 WK FOR 3 COURSES TREATMENT, Promoter: NONE USED): 7/137 (5%), 0/28 (0%), 100%, not calculated
- tumour outcome (control, treated, inhibition, significance) (Carcinogen: TRANS-5-AMINO-3-[2-(5-NITRO-2-FURYL)VINYL]-1,2,4-OXADIAZOLE;SQL8506, 28754-68-9, Carcinogen: TRANS-5-AMINO-3-[2-(5-NITRO-2-FURYL)VINYL]-1,2,4-OXADIAZOLE;SQL8506, 28754-68-9, Dose [Inhibitor]: 210 MG/KG 16 HR BEFORE THE 1ST CARCINOGEN DOSE FOLLOWED BY IP INJECTIONS (210 MG/KG) IMMEDIATELY BEFORE EACH DOSE OF CAR, Route [Inhibitor]: INTRAMUSCULAR/INTRAPERITONEAL, Species: MOUSE, Strain/Sex: CD-1/FEMALE, Target Tissue: Type of Lesion: LYMPHOID TISSUE: NONTHYMIC LYMPHOMA, Dose [Carcinogen]: 1 G/KG 2/D FOR 5 D EVERY 4 WK FOR 3 COURSES OF TREATMENT, Promoter: NONE USED): 8/137 (6%), 0/28 (0%), 100%, not calculated
- tumour outcome (control, treated, inhibition, significance) (Carcinogen: TRANS-5-AMINO-3-[2-(5-NITRO-2-FURYL)VINYL]-1,2,4-OXADIAZOLE;SQL8506, 28754-68-9, Carcinogen: TRANS-5-AMINO-3-[2-(5-NITRO-2-FURYL)VINYL]-1,2,4-OXADIAZOLE;SQL8506, 28754-68-9, Dose [Inhibitor]: 210 MG/KG 16 HR BEFORE THE 1ST CARCINOGEN DOSE FOLLOWED BY IP INJECTIONS (210 MG/KG) IMMEDIATELY BEFORE EACH DOSE OF CAR, Route [Inhibitor]: INTRAMUSCULAR/INTRAPERITONEAL, Species: MOUSE, Strain/Sex: CD-1/FEMALE, Target Tissue: Type of Lesion: LYMPHOID TISSUE: THYMIC LYMPHOMA, Dose [Carcinogen]: 1 G/KG 2/D FOR 5 D EVERY 4 WK FOR 3 COURSES OF TREATMENT, Promoter: NONE USED): 22/137 (16%), 1/28 (4%), 75%, not calculated
- tumour outcome (control, treated, inhibition, significance) (Carcinogen: TRANS-5-AMINO-3-[2-(5-NITRO-2-FURYL)VINYL]-1,2,4-OXADIAZOLE;SQL8506, 28754-68-9, Carcinogen: TRANS-5-AMINO-3-[2-(5-NITRO-2-FURYL)VINYL]-1,2,4-OXADIAZOLE;SQL8506, 28754-68-9, Dose [Inhibitor]: 210 MG/KG 16 HR BEFORE THE 1ST CARCINOGEN DOSE FOLLOWED BY IP INJECTIONS (210 MG/KG) IMMEDIATELY BEFORE EACH DOSE OF CAR, Route [Inhibitor]: INTRAMUSCULAR/INTRAPERITONEAL, Species: MOUSE, Strain/Sex: CD-1/FEMALE, Target Tissue: Type of Lesion: STOMACH: SQUAMOUS CARCINOMA, Dose [Carcinogen]: 1 G/KG 2/D FOR 5 D EVERY 4 WK FOR 3 COURSES OF TREATMENT, Promoter: NONE USED): 60/137 (44%), 13/28 (46%), -4%, not calculated
